# Measurements published in patent US9682953B2, “Amide compounds, compositions and applications thereof” (Advinus Therapeutics Limited, priority 2011, dated 2017).
# Where two headings read alike, the source gives them in different places.
# Key:
# [1] = target: human Fatty Acid Amide Hydrolase (FAAH) (Homo sapiens (Human), UniProt O00519); experiment: biochemical
# [2] = target: rat Fatty Acid Amide Hydrolase (FAAH) (Rattus norvegicus (Rat), UniProt P97612); experiment: FAAH in vitro fluorescence assay (AAMCA hydrolysis), rat enzyme; assay type: biochemical; conditions: rat FAAH; for rFAAH % inhibition at 100 nM / inhibition at 0.1 µM: 100 nM (tier I); for IC50: read-out: rFAAH IC50; for inhibition at 0.1 µM: read-out: rFAAH % inhibition at 100 nM
# Sequence of rat Fatty Acid Amide Hydrolase (FAAH) (P97612 30-579): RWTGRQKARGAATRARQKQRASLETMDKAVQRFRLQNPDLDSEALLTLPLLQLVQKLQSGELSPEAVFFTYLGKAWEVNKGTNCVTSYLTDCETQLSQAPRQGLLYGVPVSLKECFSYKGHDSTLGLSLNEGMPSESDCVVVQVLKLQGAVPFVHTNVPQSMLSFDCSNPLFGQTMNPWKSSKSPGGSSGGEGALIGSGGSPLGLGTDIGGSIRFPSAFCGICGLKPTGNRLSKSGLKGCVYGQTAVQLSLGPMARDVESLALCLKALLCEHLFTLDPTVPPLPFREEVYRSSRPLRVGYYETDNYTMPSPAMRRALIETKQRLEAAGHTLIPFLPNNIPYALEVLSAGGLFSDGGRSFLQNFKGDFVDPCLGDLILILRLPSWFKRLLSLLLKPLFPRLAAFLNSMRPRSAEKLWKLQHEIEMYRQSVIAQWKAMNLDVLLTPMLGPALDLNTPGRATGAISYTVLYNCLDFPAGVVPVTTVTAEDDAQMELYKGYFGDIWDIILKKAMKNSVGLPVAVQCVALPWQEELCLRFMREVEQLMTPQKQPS
# How it was run: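 Rat FAAH, E. coli-expressed with groEL-groES chaperone, used as enriched membrane extract with 10 μM AAMCA in 50 mM HEPES, 1 mM EDTA, 0.1% BSA, pH 7.4 (1% DMSO final).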
# [3] = human FAAH, read-out: hFAAH IC50
# Sequence of human Fatty Acid Amide Hydrolase (FAAH) (O00519 30-579): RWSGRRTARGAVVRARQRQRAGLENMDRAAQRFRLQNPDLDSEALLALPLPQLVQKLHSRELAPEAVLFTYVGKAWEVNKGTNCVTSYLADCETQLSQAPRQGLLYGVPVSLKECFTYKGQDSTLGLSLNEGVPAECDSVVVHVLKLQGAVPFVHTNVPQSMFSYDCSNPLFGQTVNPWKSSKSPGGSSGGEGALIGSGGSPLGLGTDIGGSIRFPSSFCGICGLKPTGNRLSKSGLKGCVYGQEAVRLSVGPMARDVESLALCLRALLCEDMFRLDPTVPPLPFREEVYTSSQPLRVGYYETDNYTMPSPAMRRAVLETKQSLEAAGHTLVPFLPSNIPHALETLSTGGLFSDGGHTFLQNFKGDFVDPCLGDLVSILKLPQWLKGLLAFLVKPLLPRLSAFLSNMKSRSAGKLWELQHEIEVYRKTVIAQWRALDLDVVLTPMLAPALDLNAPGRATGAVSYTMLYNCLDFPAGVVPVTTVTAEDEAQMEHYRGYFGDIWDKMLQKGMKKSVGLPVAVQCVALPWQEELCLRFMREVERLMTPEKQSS
SMILES,"IC50 [1, 3] [nM]",IC50 [2] [nM],IC50 ([1]; read-out: hFAAH IC50) [nM],further results
"O=C(NC1CCC(=Cc2cccc(Oc3ccc(C(F)(F)F)cn3)c2)CC1)c1ccccn1 (centres unmarked) [Example 2.A-4, N-[4-[[3-[[5-(Trifluoromethyl)-2-pyridyl]oxy]phenyl]methylene]cyclohexyl]pyridine-2-carboxamide]",508,–,–,"inhibition at 30 µM ([2]; read-out: rFAAH % inhibition at 30 uM, 30 uM): 70%"
"Cc1ccc(C(=O)NC2CCC(=Cc3cccc(Oc4ccc(C(F)(F)F)cn4)c3)CC2)c(C)n1 (centres unmarked) [Example 2.A-37, 2,6-Dimethyl-N-[4-[[3-[[5-(trifluoromethyl)-2-pyridyl]oxy]phenyl]methylene]cyclohexyl]pyridine-3-carboxamide]",57,–,–,rFAAH % inhibition at 100 nM [2]: No inhibition at 100 nM
"O=C(NC1CCC(=Cc2cccc(Oc3ccc(C(F)(F)F)cn3)c2)CC1)c1cn[nH]c1 (single isomer, unassigned; (-)) [Example 20.A-12, (−)-N-[4-[[3-[[5-(trifluoromethyl)-2-pyridyl]oxy]phenyl]methylene]cyclohexyl]-1H-pyrazole-4-carboxamide]",1.7,35.5,–,–
"Cc1ncccc1C(=O)NC1CCC(=Cc2cccc(Oc3ccc(C(F)(F)F)cn3)c2)CC1 (centres unmarked) [Example 2.A-28, 2-Methyl-N-[4-[[3-[[5-(trifluoromethyl)-2-pyridyl]oxy]phenyl]methylene]cyclohexyl]pyridine-3-carboxamide]",31,–,–,rFAAH % inhibition at 100 nM [2]: No inhibition at 100 nM
"Cc1n[nH]c(C)c1C(=O)NC1CCC(=Cc2cccc(Oc3ccc(C(F)(F)F)cn3)c2)CC1 (centres unmarked) [Example 2.A-35, 3,5-Dimethyl-N-[4-[[3-[[5-(trifluoromethyl)-2-pyridyl]oxy]phenyl]methylene]cyclohexyl]-1H-pyrazole-4-carboxamide]",–,–,29,inhibition at 0.1 µM [2]: 38%
"O=C(NC1CCC(=Cc2cccc(Oc3ccc(C(F)(F)F)cn3)c2)CC1)c1ccc(-n2cc(Cl)cn2)nc1 (centres unmarked) [Example 2.B-8, 6-(4-Chloropyrazol-1-yl)-N-[4-[[3-[[5-(trifluoromethyl)-2-pyridyl]oxy]phenyl]methylene]cyclohexyl]pyridine-3-carboxamide]",5,21,–,–
"Cc1nc(Oc2cccc(C=C3CCC(NC(=O)c4ccc(N)nc4)CC3)c2)ccc1Cl (centres unmarked) [Example 2.E-16, 6-Amino-N-[4-[[3-[(5-chloro-6-methyl-2-pyridyl)oxy]phenyl]methylene]cyclohexyl]pyridine-3-carboxamide]",3,24,–,–
"CCOc1ccc(C(=O)NC2CCC(=Cc3cccc(Oc4ccc(C(F)(F)F)cn4)c3)CC2)cn1 (centres unmarked) [Example 6.1, 6-Ethoxy-N-[4-[[3-[[5-(trifluoromethyl)-2-pyridyl]oxy]phenyl]-methylene]cyclohexyl]pyridine-3-carboxamide]",10,8,–,–
"COc1ccc(C(=O)NC2CCC(=Cc3cccc(Oc4ccc(C(F)(F)F)cn4)c3)CC2)cn1 (centres unmarked) [Example 2.C-2, 6-Methoxy-N-[4-[[3-[[5-(trifluoromethyl)-2-pyridyl]oxy]phenyl]methylene]cyclohexyl]pyridine-3-carboxamide]",–,21,5,–
"O=C(O)c1cnn(-c2ccc(C(=O)NC3CCC(=Cc4cccc(Oc5ccc(C(F)(F)F)cn5)c4)CC3)cn2)c1 (centres unmarked) [Example 8.A-4, 1-[5-[[4-[[3-[[5-(Trifluoromethyl)-2-pyridyl]oxy]phenyl]methylene]cyclohexyl]carbamoyl]-2-pyridyl]pyrazole-4-carboxylic acid]",–,–,–,IC50 ([1]; hFAAH IC50): 27 nM; inhibition at 0.1 µM [2]: 15%
"O=C(NC1CCC(=Cc2cccc(Oc3ccc(C(F)(F)F)cn3)c2)CC1)c1ccncc1 (centres unmarked) [Example 2.A-8, N-[4-[[3-[[5-(Trifluoromethyl)-2-pyridyl]oxy]phenyl]methylene]cyclohexyl]pyridine-4-carboxamide]",14,–,–,inhibition at 0.1 µM [2]: 14%
"O=C(NC1CCC(=Cc2cccc(Oc3ccc(C(F)(F)F)cn3)c2)CC1)c1c[nH]c2ccccc12 [Example 2.D-6, N-[4-[[3-[[5-(Trifluoromethyl)-2-pyridyl]oxy]phenyl]methylene]cyclohexyl]-1H-indole-3-carboxamide]",–,87,10,–
"CN(C)c1ccc(C(=O)NC2CCC(=Cc3cccc(Oc4ccc(C(F)(F)F)cn4)c3)CC2)cn1 (centres unmarked) [Example 5.1, 6-(Dimethylamino)-N-[4-[[3-[[5-(trifluoromethyl)-2-pyridyl]oxy]-phenyl]methylene]cyclohexyl]pyridine-3-carboxamide]",–,13,7,–
"O=C(NC1CCC(=Cc2cccc(Oc3ccc(C(F)(F)F)cn3)c2)CC1)c1cncnc1 (centres unmarked) [Example 2.A-12, N-[4-[[3-[[5-(Trifluoromethyl)-2-pyridyl]oxy]phenyl]methylene]cyclohexyl]pyrimidine-5-carboxamide]",–,100,3,–
"Cc1ccn(-c2ccc(C(=O)NC3CCC(=Cc4cccc(Oc5ccc(C(F)(F)F)cn5)c4)CC3)cn2)n1 (centres unmarked) [Example 2.B-9, 6-(3 -Methylpyrazol-1-yl)-N-[4-[[3-[[5-(trifluoromethyl)-2-pyridyl]oxy]phenyl]methylene]cyclohexyl]pyridine-3-carboxamide]",9,22,–,–
"O=C(NC1CCC(=Cc2cccc(Oc3ccc(C(F)(F)F)cn3)c2)CC1)c1ccccc1 (centres unmarked) [Example 2.A-34, N-[4-[[3-[[5-(Trifluoromethyl)-2-pyridyl]oxy]phenyl]methylene]cyclohexyl]benzamide]",18,–,–,"inhibition at 1 µM ([2]; read-out: rFAAH % inhibition at 1 μM, 1 μM): 50%"
"Nc1ncc(C(=O)NC2CCC(=Cc3cccc(Oc4ccc(C(F)(F)F)cn4)c3)CC2)cn1 (single isomer, unassigned; (-)) [Example 20.A-10]",–,7,0.6,–
"O=C(NC1CCC(=Cc2cccc(Oc3ccc(C(F)(F)F)cn3)c2)CC1)c1cccnn1 (centres unmarked) [Example 2.A-11, N-[4-[[3-[[5-(Trifluoromethyl)-2-pyridyl]oxy]phenyl]methylene]cyclohexyl]pyridazine-3-carboxamide]",–,194,11,–
"O=C(NC1CCC(=Cc2cccc(Oc3ccc(C(F)(F)F)cn3)c2)CC1)c1c[nH]nc1C(F)(F)F (single isomer, unassigned; (-)) [Example 20.A-8, (−)-3-(Trifluoromethyl)-N-[4-[[3-[[5-(trifluoromethyl)-2-pyridyl]oxy]phenyl]methylene]cyclohexyl]-1H-pyrazole-4-carboxamide]",–,30,1,–
"O=C(NC1CCC(=Cc2cccc(Oc3ccc(C(F)(F)F)cn3)c2)CC1)c1cccnn1 (single isomer, unassigned; (+)) [Example 20.A-15, (+)-N-[4-[[3-[[5-(trifluoromethyl)-2-pyridyl]oxy]phenyl]methylene]cyclohexyl]pyridazine-3-carboxamide]",–,408,431,–
"O=C(NC1CCC(=Cc2cccc(Oc3ccc(C(F)(F)F)cn3)c2)CC1)c1cn[nH]c1 (single isomer, unassigned; (+)) [Example 20.A-11, (+)-N-[4-[[3-[[5-(trifluoromethyl)-2-pyridyl]oxy]phenyl]methylene]cyclohexyl]-1H-pyrazole-4-carboxamide]",78,–,–,"inhibition at 10 µM ([2]; read-out: rFAAH % inhibition at 10 uM, 10 uM): 86%"
"O=C(NC1CCC(=Cc2cccc(Oc3ccc(C(F)(F)F)cn3)c2)CC1)c1cnc2[nH]ccc2c1 (single isomer, unassigned; (-)) [Example 20.A-14, (−)-N-[4-[[3-[[5-(trifluoromethyl)-2-pyridyl]oxy]phenyl]methylene]cyclohexyl]-1H-pyrrolo[2,3-b]pyridine-5-carboxamide]",–,8.6,1,–
"O=C(NC1CCC(=Cc2cccc(Oc3ccc(C(F)(F)F)cn3)c2)CC1)c1ccc(F)nc1 (centres unmarked) [Example 2.A-14, 6-Fluoro-N-[4-[[3-[[5-(trifluoromethyl)-2-pyridyl]oxy]phenyl]methylene]cyclohexyl]pyridine-3-carboxamide]",–,–,10,inhibition at 0.1 µM [2]: 25%
"Cc1n[nH]c(C(C)C)c1C(=O)NC1CCC(=Cc2cccc(Oc3ccc(C(F)(F)F)cn3)c2)CC1 (centres unmarked) [Example 2.A-38, 5-Isopropyl-3-methyl-N-[4-[[3-[[5-(trifluoromethyl)-2-pyridyl]oxy]phenyl]methylene]cyclohexyl]-1H-pyrazole-4-carboxamide]",–,–,–,"inhibition at 0.1 µM ([1]; read-out: hFAAH % inhibition at 100 nM, human FAAH, 100 nM (tier I)): 20%; inhibition at 0.1 µM [2]: 54%"
"O=C(NC1CCC(=Cc2cccc(Oc3ccc(C(F)(F)F)cn3)c2)CC1)c1cn[nH]n1 (centres unmarked) [Example 2.A-19, N-[4-[[3-[[5-(Trifluoromethyl)-2-pyridyl]oxy]phenyl]methylene]cyclohexyl]-2H-triazole-4-carboxamide]",6,145,–,–
"Cc1cc(C(=O)NC2CCC(=Cc3cccc(Oc4ccc(Cl)c(C)n4)c3)CC2)cnc1N (centres unmarked) [Example 2.E-25, 6-Amino-N-[4-[[3-[(5-chloro-6-methyl-2-pyridyl)oxy]phenyl]methylene]cyclohexyl]-5-methyl-pyridine-3-carboxamide]",7,32,–,–
"Cc1nc(Oc2cccc(C=C3CCC(NC(=O)c4cnc(N)nc4)CC3)c2)ccc1C(F)(F)F (centres unmarked) [Example 2.E-22, 2-Amino-N-[4-[[3-[[6-methyl-5-(trifluoromethyl)-2-pyridyl]oxy]phenyl]methylene]cyclohexyl]pyrimidine-5-carboxamide]",2,21,–,–
"O=C(NC1CCC(=Cc2cccc(Oc3ccc(C(F)(F)F)cn3)c2)CC1)c1ccc(-n2cccn2)nc1 (centres unmarked) [Example 5.A-6, 6-Pyrazol-1-yl-N-[4-[[3-[[5-(trifluoromemyl)-2-pyridyl]oxy]phenyl]methylene]cyclohexyl]pyridine-3-carboxamide]",–,7,7,–
